Here are results for one compound from US10799484B2, “Compositions and methods for treating synucleinopathies” (priority 2017, dated 2020).

Molecules are shown by their SMILES. Where two headings read alike, the source gives them in different places.

For one data set, the system named is humans. The following applies: for MTD-1 (Pramipexole alone): Period 1. As to the method:
The ability of the 5HT3-antagonists to prevent the gastro-intestinal (GI) adverse effects (AEs) of pramipexole in humans was tested.
A Phase I study was conducted in subjects receiving a single oral dose of pramipexole dihydrochloride monohydrate (“pramipexole”) with or without a single oral dose of ondansetron hydrochloride dihydrate (“ondansetron”). The study was single center, single-blind study.
Following enrollment in the study, participants received single increasing oral doses of pramipexole given once daily in the morning (Period 1 of the study). The starting dose of pramipexole was 0.5 mg and the dose was increased daily by 0.5 mg increments. Once a subject had reached his/her first intolerable dose (FID-1), upward dose escalation was discontinued.
When a subject reached FID-1 on pramipexole alone, the subject was washed out for at least 5 days, and then entered Period 2 of the study during which the subject received single daily oral doses of pramipexole starting at 0.5 mg and titrated upward by 0.5 mg increments, together with oral ondansetron hydrochloride dihydrate (10 mg, equivalent to 8 mg ondansetron base) until subjects again reached an intolerable dose defined as above. The FID on oral pramipexole plus oral ondansetron was referred to as FID-2.
If a subject reached FID-2 during Period 2 at the same or lower dose than FID-1, and providing the investigator judged there were no safety issues and the subject was consenting, the subject received the same dose of pramipexole as the FID-2 dose together with a higher dose of oral ondansetron hydrochloride dihydrate (20 mg, equivalent to 16 mg ondansetron base) on the next day and the protocol specified that said subject should continue with the remainder of the dose titration with the higher dose of oral ondansetron hydrochloride dihydrate (20 mg, equivalent to 16 mg ondansetron base) until they reach the intolerable dose (FID2+). All other provisions of the protocol remained unchanged. Assessments were the same as those planned for the dose escalation day.
On each study day, subjects were followed up for up to 8 hours following drug administration for AEs, vital signs, ECGs. In addition, a laboratory panel was taken at screening and at the end of the study.

The subject of data set [1] is dopaminergic neurons in a mouse PD model. The following applies: cited from earlier work.
The test system of data set [2] is human neuroblastoma SH-SY5Y cells. The settings on record: cited from earlier work.
The next data set relates to PD patients. The settings on record: doses approved for motor symptoms of PD; 535 PD patients; cited from earlier work.
Data set [3] addresses human wild-type alpha-synuclein (Homo sapiens, UniProt P37840). The following applies: in vitro; by H2O2 plus cytochrome c; cited from earlier work.
The target of data set [4] is synuclein oligomer formation (Homo sapiens, UniProt P37840). The following applies: in vitro; cited from earlier work.
The subject of a further data set is patients. The following applies: 5 mg/day, cited from earlier work.

With `CCCN[C@H]1CCc2nc(N)sc2C1` [Pramipexole, (S)-6-propylamino-4,5,6,7-tetrahydro-1,3-benzothiazole-2-amine], the dose limiting toxicity result in the data set with humans (in vivo) is “gastro-intestinal adverse events”. Also, the “MTD-1 (Pramipexole alone)” value with humans (subject 1001) is on record as 2.0 mg; in the data set on humans (subject 1005) it was 1.5 mg; in the data set with humans (subject 1006, cell wraps: NA (not tolerated at 0.5 mg), the starting dose) it was “NA (not tolerated at”; in the data set with humans (subject 1007) it was 4.0 mg; in the data set on humans (subject 1008) it was 1.0 mg. Further, in data set [1], the “toxic effects of rotenone on dopaminergic neurons” value is listed as “inhibits”. Besides, the immunoreactivity for alpha-synuclein result in data set [1] (rotenone) was “reducing”. In data set [2], the aggregation of alpha-synuclein entry is “inhibit”. In the data set with PD patients, the “neuroprotective (disease modifying) activity” value is “failed to evidence”. Besides, the “oligomerization of human wild-type alpha-synuclein” value in data set [3] was “decreases”. For the same compound, in data set [4], the synuclein oligomer formation entry is recorded as “diminishes”. In addition, the patients with nausea in the data set with patients is on record as 76%. Moreover, in the data set with patients, the patients with vomiting is reported as 39%. Moreover, the “patients not able to complete the study” value in the data set with patients (presumably because of intolerable GI adverse events) is 36%.
